Laboratory results as given in ChEMBL document CHEMBL6083176, “Fluorescence theranostic PROTACs for real-time visualization of ERα degradation” (Eur J Med Chem, 2024).
Activity calls are given as the source filed them. The rule behind the calls is not given here. Peptide text beside a SMILES is read from it. * marks the point of attachment. Cbz = O=C(OCc1ccccc1)*

Key:
[1] = target: T1, von Hippel-Lindau disease tumor suppressor/Estrogen receptor (Homo sapiens, UniProt P03372+P40337); experiment: PROTAC activity at VHL/ERalpha in human MCF7 cells assessed as induction of ERalpha degradation at 5 uM by Western blot analysis; assay type: cell-based
Target sequence in this assay (P40337 whole entry, looked up, one chain of several): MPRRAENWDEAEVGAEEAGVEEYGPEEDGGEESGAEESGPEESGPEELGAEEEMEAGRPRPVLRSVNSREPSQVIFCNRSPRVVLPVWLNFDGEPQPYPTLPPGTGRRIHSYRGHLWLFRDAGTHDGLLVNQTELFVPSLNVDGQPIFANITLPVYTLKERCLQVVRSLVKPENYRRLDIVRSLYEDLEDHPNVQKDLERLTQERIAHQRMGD

[2] = tested on: MCF7; experiment: Antiproliferative activity against human MCF7 cells assessed as reduction in cell viability incubated for 48 hrs by MTT assay; assay type: functional, cell-based; conditions: MCF7, 48 h
[3] = GSH reactivity of compound assessed as change in fluorescence response; assay type: physicochemical
[4] = Chemical reactivity of compound to MgCl2 assessed as change in fluorescence response; assay type: physicochemical
[5] = target: T1, von Hippel-Lindau disease tumor suppressor/Estrogen receptor; experiment: PROTAC activity at VHL/ERalpha in human MCF7 cells assessed as induction of ERalpha degradation at 0.5 uM incubated for 24 hrs in presence of MG132 by Western blot analysis; assay type: cell-based
Target sequence in this assay (P40337 whole entry, looked up, one chain of several): as above

[6] = Photostability of the compound in DMSO/PBS solution assessed as decrease in fluorescence intensity at 466 nm excitation with Hamamatsu LC8 lightning cure (300 W) light for 2 hrs by fluorescence based analysis relative to initial value; assay type: physicochemical; design: dose or concentration left out as unconfirmed; conditions: read-out: Activity
[7] = target: T1, von Hippel-Lindau disease tumor suppressor/Estrogen receptor; experiment: PROTAC activity at VHL/ERalpha in human MCF7 cells assessed as induction of ERalpha degradation incubated for 24 hrs by Western blot analysis; assay type: cell-based
Target sequence in this assay (P40337 whole entry, one chain of several): as the sequence (P40337 whole entry, looked up, one chain of several) above

[8] = target: Estrogen receptor beta (Homo sapiens) (UniProt Q92731); experiment: Binding affinity to ERbeta (unknown origin) assessed as relative binding affinity incubated for 2 hrs in presence of coumestrol by fluorescence polarization based competitive binding assay relative to estradiol
Chain of Estrogen receptor beta (Homo sapiens) (Q92731 whole entry): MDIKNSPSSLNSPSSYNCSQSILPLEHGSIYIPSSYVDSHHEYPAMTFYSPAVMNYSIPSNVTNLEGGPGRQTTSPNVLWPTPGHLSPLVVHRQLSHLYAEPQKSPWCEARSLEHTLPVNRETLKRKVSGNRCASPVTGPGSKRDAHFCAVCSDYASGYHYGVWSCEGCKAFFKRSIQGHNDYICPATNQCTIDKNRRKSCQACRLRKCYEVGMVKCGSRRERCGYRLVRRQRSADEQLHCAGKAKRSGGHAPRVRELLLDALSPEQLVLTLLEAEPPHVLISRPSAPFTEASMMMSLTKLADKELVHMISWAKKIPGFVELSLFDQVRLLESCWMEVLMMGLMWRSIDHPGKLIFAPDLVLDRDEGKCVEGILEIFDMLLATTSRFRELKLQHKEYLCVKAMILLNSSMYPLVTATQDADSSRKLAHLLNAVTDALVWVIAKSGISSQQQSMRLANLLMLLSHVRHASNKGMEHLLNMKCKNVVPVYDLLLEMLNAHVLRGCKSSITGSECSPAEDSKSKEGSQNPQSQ

[9] = Chemical reactivity of compound to NaNO2 assessed as change in fluorescence response; assay type: physicochemical
[10] = Drug uptake in human MCF7 cells assessed as increase in red fluorescence at 10 uM measured after 24 hrs by confocal laser scanning microscopic analysis; assay type: ADME, cell-based; conditions: mcf7, 24 h
[11] = Chemical reactivity of compound to KCl assessed as change in fluorescence response; assay type: physicochemical
[12] = tested on: DU-145; experiment: Antiproliferative activity against human DU-145 cells assessed as reduction in cell viability incubated for 48 hrs by MTT assay; assay type: functional, cell-based; conditions: DU-145, 48 h
[13] = Drug uptake in ER positive human MCF7 cells assessed as increase in red fluorescence at 10 uM incubated for 30 mins in glucose-depleted DMEM medium by confocal laser scanning microscopic analysis; assay type: ADME, cell-based; conditions: mcf7, 0.5 h
[14] = target: T2, Estrogen receptor (Homo sapiens) (UniProt P03372); experiment: Binding affinity to ERalpha (unknown origin) assessed as relative binding affinity incubated for 2 hrs in presence of coumestrol by fluorescence polarization based competitive binding assay relative to estradiol
T2 sequence (whole entry): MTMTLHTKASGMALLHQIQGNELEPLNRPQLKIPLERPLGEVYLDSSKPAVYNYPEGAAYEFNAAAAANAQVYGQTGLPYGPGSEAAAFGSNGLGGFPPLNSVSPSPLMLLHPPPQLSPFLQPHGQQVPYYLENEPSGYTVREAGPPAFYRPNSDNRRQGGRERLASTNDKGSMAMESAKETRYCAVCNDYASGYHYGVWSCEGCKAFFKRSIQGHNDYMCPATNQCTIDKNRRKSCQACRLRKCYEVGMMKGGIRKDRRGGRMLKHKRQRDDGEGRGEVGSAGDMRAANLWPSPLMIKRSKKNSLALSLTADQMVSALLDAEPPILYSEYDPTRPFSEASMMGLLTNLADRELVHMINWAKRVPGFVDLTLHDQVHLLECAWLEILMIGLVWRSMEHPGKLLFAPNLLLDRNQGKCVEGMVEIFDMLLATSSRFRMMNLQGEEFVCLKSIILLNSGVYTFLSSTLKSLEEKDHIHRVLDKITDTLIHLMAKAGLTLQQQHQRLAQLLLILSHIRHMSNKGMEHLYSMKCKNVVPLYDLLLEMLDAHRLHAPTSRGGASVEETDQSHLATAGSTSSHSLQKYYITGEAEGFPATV

[15] = Chemical reactivity of compound to lysine assessed as change in fluorescence response; assay type: physicochemical
[16] = Chemical reactivity of compound to NaHCO3 assessed as change in fluorescence response; assay type: physicochemical
[17] = target: T1, von Hippel-Lindau disease tumor suppressor/Estrogen receptor; experiment: PROTAC activity at VHL/ERalpha in human MCF7 cells assessed as induction of ERalpha degradation by measuring decrease in green fluorescence at 10 uM measured after 24 hrs by anti-ERalpha based immunofluorescence analysis; assay type: cell-based
Target sequence in this assay (P40337 whole entry, looked up, one chain of several): as the sequence (P40337 whole entry, looked up, one chain of several) above

[18] = Drug uptake in ER positive human MCF7 cells assessed as increase in red fluorescence at 10 uM incubated for 30 mins in glucose-depleted DMEM medium in presence of estradiol by confocal laser scanning microscopic analysis; assay type: ADME, cell-based; conditions: mcf7, 0.5 h
[19] = Chemical reactivity of compound to glycine assessed as change in fluorescence response; assay type: physicochemical
[20] = Chemical reactivity of compound to methionine assessed as change in fluorescence response; assay type: physicochemical
[21] = target: T1, von Hippel-Lindau disease tumor suppressor/Estrogen receptor; experiment: PROTAC activity at VHL/ERalpha in human MCF7 cells assessed as induction of ERalpha degradation at 0.05 to 0.5 uM incubated for 24 hrs in presence of 4-OHT by Western blot analysis; assay type: cell-based; conditions: dose 0.05-0.5 µM
Target sequence in this assay (P40337 whole entry, looked up, one chain of several): as above

[22] = Chemical reactivity of compound to […] assessed as change in fluorescence response; assay type: physicochemical
[23] = Selectivity ratio of RBA for ERalpha (unknown origin) to RBA for ERbeta (unknown origin)
[24] = target: T1, von Hippel-Lindau disease tumor suppressor/Estrogen receptor; experiment: PROTAC activity at VHL/ERalpha in human MCF7 cells assessed as induction of ERalpha degradation at 0.5 uM incubated for 24 hrs in presence of VHL ligand by Western blot analysis; assay type: cell-based
Target sequence in this assay (P40337 whole entry, looked up, one chain of several): as above

[25] = Chemical reactivity of compound to CaCl2 assessed as change in fluorescence response; assay type: physicochemical
[26] = tested on: MCF7; experiment: Effect on ERalpha expression in human MCF7 cells at 5 uM incubated for 24 hrs by Western blot analysis; assay type: functional, cell-based

Compound	Activity [1]	IC50 [2] [nM]	RBA [8] [%]	IC50 [12] [µM]	RBA [14] [%]	Selectivity ratio [23]	other results
Cc1ncsc1-c1ccc([C@H](C)NC(=O)[C@@H]2C[C@@H](O)CN2C(=O)[C@@H](NC(=O)CCCCCCCCCOc2cc(O)ccc2/C=C/C2=CC(=C(C#N)C#N)c3cc(O)ccc3O2)C(C)(C)C)cc1	Active	51	3.94	> 100	7.99	2.03	Drug metabolism [3]: metabolite_notdetected; Activity [4]: Not_active; Activity [5]: Not active; Mg132 Partly Blocked The Degradation; degraded at 2 h [6]: < 5%; DC50 [7]: 120 nM; Activity [9]: Not_active; Drug uptake [10]: Active; Activity [11]: Not_active; Drug uptake [13]: Active; Activity [15]: Not_active; Activity [16]: Not_active; Activity [17]: Active; Nearly Complete Disappearance Of Fluorescence Observed; Drug uptake [18]: Not_active; Activity [19]: Not_active; Activity [20]: Not_active; Activity [21]: inactive; Activity [22]: Not_active; Activity [24]: inactive; Activity [25]: Not_active
Cc1ncsc1-c1ccc([C@H](C)NC(=O)[C@@H]2C[C@@H](O)CN2C(=O)[C@@H](NC(=O)CCCCCOc2cc(O)ccc2/C=C/C2=CC(=C(C#N)C#N)c3cc(O)ccc3O2)C(C)(C)C)cc1	Active	> 100000	2.48	> 100	3.69	1.48	
C[C@]12CC[C@@H]3c4ccc(O)cc4C[C@@H](CCCCCCCCC[S+]([O-])CCCC(F)(F)C(F)(F)F)[C@H]3[C@@H]1CC[C@@H]2O (stereo not given in full) [FULVESTRANT]		3					
Cc1ncsc1-c1ccc([C@H](C)NC(=O)[C@@H]2C[C@@H](O)CN2C(=O)[C@@H](NC(=O)CCCCCCCOc2cc(O)ccc2/C=C/C2=CC(=C(C#N)C#N)c3cc(O)ccc3O2)C(C)(C)C)cc1	Active	110	0.65	> 100	2.48	3.79	
Cc1ncsc1-c1ccc([C@H](C)NC(=O)[C@@H]2C[C@@H](O)CN2C(=O)[C@@H](NC(=O)CCCCCCCCCCCOc2cc(O)ccc2/C=C/C2=CC(=C(C#N)C#N)c3cc(O)ccc3O2)C(C)(C)C)cc1	Active	33500	1.4	> 100	2.11	1.51	
CC(C)C[C@@H](C=O)NC(=O)[C@H](CC(C)C)NC(=O)[C@H](CC(C)C)NC(=O)OCc1ccccc1 (Cbz-Leu-Leu-Leu-aldehyde)							Activity [26]: inactive
